# Test: Water solubility of blowing agents at 20° C.
# Settings: in water
row,SMILES,Water solubility at 20° C. (weight percent)
1,CC(C)C [Isobutane],<0.01% weight percent
2,[He] [Helium],<0.01 weight percent
3,CCCC [Butane],<0.01% weight percent
4,O=C=O [Carbon dioxide],0.8% weight percent
5,COC [Dimethyl ether],7% weight percent
6,[N-]=[N+]=O [Nitrous oxide],0.12 weight percent

# From US20220354754A1, “FOAM COMPOSITIONS” (The Procter & Gamble Company, priority 2021, published 2022)
